Consider one compound from ChEMBL document CHEMBL5523747, “Discovery of a Series of Orally Bioavailable Androgen Receptor Degraders for the Treatment of Prostate Cancer” (J Med Chem, 2024).

Each structure is given as a SMILES string. Calls of active or inactive are those of the source.

For data set [1], the target named is T1, Protein cereblon/Androgen receptor (Homo sapiens, UniProt P10275+Q96SW2). Put plainly: PROTAC activity at AR/CRBN in human LNCaP cells assessed as protein degradation measured after 24 hrs incubation by imaging IF assay. The format is cell-based.
Target sequence in this assay (P10275 whole entry): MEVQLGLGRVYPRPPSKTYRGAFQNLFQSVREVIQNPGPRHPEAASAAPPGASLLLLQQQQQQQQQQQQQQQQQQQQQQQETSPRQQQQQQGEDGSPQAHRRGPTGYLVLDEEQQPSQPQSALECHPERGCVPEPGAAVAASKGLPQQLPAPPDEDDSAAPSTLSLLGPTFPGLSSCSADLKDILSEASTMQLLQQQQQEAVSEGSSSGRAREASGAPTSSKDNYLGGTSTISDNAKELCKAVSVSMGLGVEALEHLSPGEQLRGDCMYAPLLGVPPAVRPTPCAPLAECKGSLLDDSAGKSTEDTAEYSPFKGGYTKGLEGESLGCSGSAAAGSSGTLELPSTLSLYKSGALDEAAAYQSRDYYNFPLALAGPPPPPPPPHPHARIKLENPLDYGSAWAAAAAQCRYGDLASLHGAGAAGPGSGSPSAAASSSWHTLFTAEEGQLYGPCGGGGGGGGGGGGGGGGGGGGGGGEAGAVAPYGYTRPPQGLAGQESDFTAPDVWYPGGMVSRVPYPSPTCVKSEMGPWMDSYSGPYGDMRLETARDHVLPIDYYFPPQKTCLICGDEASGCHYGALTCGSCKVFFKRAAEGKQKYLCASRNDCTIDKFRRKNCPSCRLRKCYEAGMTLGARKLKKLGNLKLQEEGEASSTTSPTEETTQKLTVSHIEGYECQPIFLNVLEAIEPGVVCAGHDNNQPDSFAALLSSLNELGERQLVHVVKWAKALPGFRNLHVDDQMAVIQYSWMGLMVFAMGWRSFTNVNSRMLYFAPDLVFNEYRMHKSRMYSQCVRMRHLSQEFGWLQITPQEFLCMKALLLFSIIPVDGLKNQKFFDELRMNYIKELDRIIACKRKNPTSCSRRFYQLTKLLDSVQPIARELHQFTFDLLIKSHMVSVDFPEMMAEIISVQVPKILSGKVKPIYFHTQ
Target sequence in this assay (Q96SW2 whole entry): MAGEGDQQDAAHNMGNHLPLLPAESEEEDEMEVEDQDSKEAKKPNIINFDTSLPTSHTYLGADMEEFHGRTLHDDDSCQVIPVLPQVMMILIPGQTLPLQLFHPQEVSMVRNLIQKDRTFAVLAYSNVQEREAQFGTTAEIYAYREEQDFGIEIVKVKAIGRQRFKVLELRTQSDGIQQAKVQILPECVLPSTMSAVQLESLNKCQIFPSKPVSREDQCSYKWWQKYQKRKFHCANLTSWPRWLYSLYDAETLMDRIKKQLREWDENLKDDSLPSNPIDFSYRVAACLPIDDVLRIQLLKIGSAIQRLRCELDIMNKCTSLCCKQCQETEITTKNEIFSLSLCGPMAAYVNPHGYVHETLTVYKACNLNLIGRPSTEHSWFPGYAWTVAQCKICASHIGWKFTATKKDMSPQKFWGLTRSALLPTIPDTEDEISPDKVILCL
The target in data set [2] is T1, Protein cereblon/Androgen receptor. The data set is described as follows: PROTAC activity at AR/CRBN in human LNCaP cells assessed as maximal protein degradation measured after 24 hrs incubation by imaging IF assay relative to control. The format is cell-based.
Target sequence in this assay (P10275 whole entry, looked up): as the sequence (P10275 whole entry) above
Target sequence in this assay (Q96SW2 whole entry, looked up): as the sequence (Q96SW2 whole entry) above
The nature of data set [3]: Volume of distribution at steady state in CD-1 mouse at 1 mg/kg, po and 0.5 mg/kg, iv bolus. It counts as ADME, organism-based. The settings on record: in vivo.
A short description of data set [4]: Half life in CD-1 mouse at 1 mg/kg, po and 0.5 mg/kg, iv bolus. The format is ADME, organism-based. The settings on record: in vivo.
The nature of data set [5]: Volume of distribution at steady state in Han Wistar rat at 1 mg/kg, po and 0.5 mg/kg, iv bolus. It counts as ADME, organism-based. The settings on record: in vivo.
Data set [6] can be described thus: Half life in Han Wistar rat at 1 mg/kg, po and 0.5 mg/kg, iv bolus. It counts as ADME, organism-based. The settings on record: in vivo.
Data set [7] in a line: Oral bioavailability in Han Wistar rat at 1 mg/kg. The settings on record: in vivo. The format is ADME, organism-based.
The nature of data set [8]: Volume of distribution at steady state in Beagle dog at 1 mg/kg, po and 0.5 mg/kg, iv infusion over 0.25 hrs. It counts as ADME, organism-based, Canis lupus familiaris. Particulars: in vivo.
Data set [9] is described as follows: Half life in Beagle dog at 1 mg/kg, po and 0.5 mg/kg, iv infusion over 0.25 hrs. It counts as ADME, organism-based, Canis lupus familiaris. The settings on record: in vivo.
The nature of data set [10]: Oral bioavailability in Beagle dog at 1 mg/kg. Particulars: in vivo. It counts as ADME, organism-based, Canis lupus familiaris.
The target in data set [11] is Protein cereblon/Androgen receptor (Homo sapiens, UniProt P10275+Q96SW2, L702H). Put plainly: PROTAC activity at CRBN/AR L702H mutant (unknown origin) expressed in human LNCaP cells assessed as protein degradation measured after 24 hrs incubation by imaging IF assay. It counts as cell-based.
For data set [12], the system named is Protein cereblon/Androgen receptor (Homo sapiens), P10275+Q96SW2 [L702H]. The data set is described as follows: PROTAC activity at CRBN/AR L702H mutant (unknown origin) expressed in human LNCaP cells assessed as maximal protein degradation measured after 24 hrs incubation by imaging IF assay relative to control. It counts as cell-based.
Data set [13] in a line: Volume of distribution at steady state in CD-1 mouse at 1 mg/kg, po and 0.5 mg/kg, iv. The settings on record: in vivo. It counts as ADME, organism-based.
Data set [14] is described as follows: Half life in CD-1 mouse at 1 mg/kg, po and 0.5 mg/kg, iv. The format is ADME, organism-based. The settings on record: in vivo.
The nature of data set [15]: Oral bioavailability in CD-1 mouse at 1 mg/kg. It counts as ADME, organism-based. Particulars: in vivo.
Data set [16] addresses T1, Protein cereblon/Androgen receptor. The data set is described as follows: PROTAC activity at AR/CRBN in androgen-independent human LNCaP C4-2 cells assessed as protein degradation at 0.0001 to 10 uM measured after 24 hrs incubation by Western blot analysis. It counts as cell-based. Particulars: dose 0.0001-10 µM. In general terms: Immunoblotting shows a protein as a band on a membrane.
Target sequence in this assay (P10275 whole entry, looked up): as the sequence (P10275 whole entry) above
Target sequence in this assay (Q96SW2 whole entry, looked up): as the sequence (Q96SW2 whole entry) above

Data set [17] has the same target. Put plainly: PROTAC activity at AR/CRBN in adrogen-sensitive human VCaP cells assessed as protein degradation at 0.0001 to 10 uM measured after 24 hrs incubation by Western blot analysis. It counts as cell-based. The settings on record: dose 0.0001-10 µM.
Target sequence in this assay (P10275 whole entry, looked up): as the sequence (P10275 whole entry) above
Target sequence in this assay (Q96SW2 whole entry, looked up): as the sequence (Q96SW2 whole entry) above
Data set [18] deals with LNCaP. Put plainly: Effect on AR mRNA level in human LNCaP cells at 0.0001 to 10 uM measured after 24 hrs incubation by QRTPCR analysis. The format is functional, cell-based. The settings on record: dose 0.0001-10 µM.
Data set [19] relates to LNCaP. Put plainly: Anti-proliferative activity against human LNCaP cells assessed as number of live cells measured after 7 days by Sytox Green Nucleic Acid stain assay. The format is functional. The settings on record: 168 h, time 7 day.
Data set [20] addresses T1, Protein cereblon/Androgen receptor. The data set is described as follows: PROTAC activity at AR/CRBN in human LNCaP cells assessed as protein degradation measured after 24 hrs incubation in presence of excess lenalidomide CRBN ligand by imaging IF assay. It counts as cell-based.
Target sequence in this assay (P10275 whole entry, looked up): as the sequence (P10275 whole entry) above
Target sequence in this assay (Q96SW2 whole entry, looked up): as the sequence (Q96SW2 whole entry) above
The target is the same in data set [21]. Put plainly: PROTAC activity at AR/CRBN in human LNCaP cells assessed as protein degradation measured after 24 hrs incubation in presence of excess enzalutamide AR binder by imaging IF assay. The format is cell-based.
Target sequence in this assay (P10275 whole entry, looked up): as the sequence (P10275 whole entry) above
Target sequence in this assay (Q96SW2 whole entry, looked up): as the sequence (Q96SW2 whole entry) above
Data set [22] has as its system LNCaP C4-2. Put plainly: In vivo degradation of AR in human LNCaP C4-2 cells xenografted in mouse model assessed as degradation at 30 mg/kg, po once daily measured after 10 days relative to control. The format is functional. The settings on record: time 10 day.
A short description of data set [23]: Total plasma concentration in mouse xenografted with human LNCaP C4-2 cells at 30 mg/kg, po once daily measured after 10 days. It counts as ADME, organism-based. Particulars: time 10 day, read-out: Cp(T). Background: In xenograft studies the graft and the host belong to different species.
The test system of data set [24] is LNCaP C4-2. The data set is described as follows: In vivo antitumor activity in human LNCaP C4-2 cells xenografted in mouse model assessed as tumor growth inhibition at 30 mg/kg, po once daily measured after 28 days relative to control. The format is functional. The settings on record: LNCaP C4-2, 672 h, time 28 day, read-out: TGI.

Protein cereblon/Androgen receptor (Homo sapiens, UniProt P10275+Q96SW2, L702H), sequence (P10275 whole entry L702H, stated change not applied): as the sequence (P10275 whole entry) above, with L702H counted along it
Protein cereblon/Androgen receptor (Homo sapiens, UniProt P10275+Q96SW2, L702H), sequence (Q96SW2 whole entry, stated change not applied): as the sequence (Q96SW2 whole entry) above

Take `COc1cc(N2CCN(CC3CCN(c4ccc(C5CCN(c6ccc(C#N)c(C(F)(F)F)c6F)CC5)cc4)CC3)CC2)cc2c1C(=O)N(C1CCC(=O)NC1=O)C2` (centres undefined): the values for the DC50 in data set [1] and in data set [11] were 22 nM and 92 nM, respectively. The Emax (in general, the maximal effect, on the per cent scale that the assay sets) in data set [2] was found to be 96%; in data set [12], 74%. The Vdss was 1.5 L/kg in data set [3], 9 L/kg in data set [5], 2.4 L/kg in data set [8] and 1.5 L/kg in data set [13]. The half-life (in general, the time needed for the level to fall by half in the phase considered) in data set [4] was 9 h; in [6], 11 h; in [9], 12.5 h; in data set [14] it was 9 h. In addition, the results for the bioavailability in [7], in data set [10] and in data set [15] were 29%, 18% and 62%, respectively. In addition, the outcome in data set [16] and in data set [17] was Active. Also, the outcome in [18], in [20] and in [21] was inactive. Also, the GI50 (commonly the concentration that inhibits growth by half) in data set [19] came out at 74 nM. Further, the Activity in data set [22] is given as over 90%. The concentration at 240 h in data set [23] was about 20 µM. In addition, the inhibition in vivo at 30 mg/kg in [24] was determined as 70%.
